In ChEMBL document CHEMBL2440076, “New triarylpyrazoles as broad-spectrum anticancer agents: design, synthesis, and biological evaluation” (Eur J Med Chem, 2013):

Assays:
Assay type in all cases: functional
[1] = tested on: SK-MEL-5; experiment: Growth inhibition of human SK-MEL-5 cells assessed as cell growth at 3X10'-6 M after 48 hrs by sulforhodamine B assay; conditions: SK-MEL-5, 48 h, read-out: Activity
[2] = tested on: HT-29; experiment: Growth inhibition of human HT-29 cells assessed as cell growth at 3X10'-8 M after 48 hrs by sulforhodamine B assay; conditions: HT-29, 48 h, read-out: Activity
[3] = tested on: MDA-MB-435; experiment: Growth inhibition of human MDA-MB-435 cells assessed as cell growth at 3X10'-8 M after 48 hrs by sulforhodamine B assay; conditions: MDA-MB-435, 48 h, read-out: Activity
[4] = tested on: SK-MEL-2; experiment: Growth inhibition of human SK-MEL-2 cells assessed as cell growth at 3X10'-7 M after 48 hrs by sulforhodamine B assay; conditions: SK-MEL-2, 48 h, read-out: Activity
[5] = tested on: U-251; experiment: Growth inhibition of human U251 cells assessed as cell growth at 3X10'-9 M after 48 hrs by sulforhodamine B assay; conditions: U-251, 48 h, read-out: Activity
[6] = tested on: BT-549; experiment: Growth inhibition of human BT549 cells assessed as cell growth at 3X10'-8 M after 48 hrs by sulforhodamine B assay; conditions: BT-549, 48 h, read-out: Activity
[7] = tested on: ACHN; experiment: Growth inhibition of human ACHN cells assessed as cell growth at 3X10'-9 M after 48 hrs by sulforhodamine B assay; conditions: read-out: Activity
[8] = tested on: MOLT-4; experiment: Growth inhibition of human MOLT4 cells assessed as cell growth at 3X10'-6 M after 48 hrs by sulforhodamine B assay; conditions: MOLT-4, 48 h, read-out: Activity
[9] = tested on: A549; experiment: Growth inhibition of human A549/ATCC cells assessed as cell growth at 3X10'-6 M after 48 hrs by sulforhodamine B assay; conditions: A549, 48 h, read-out: Activity
[10] = tested on: MDA-MB-231; experiment: Growth inhibition of human MDA-MB-231 cells assessed as cell growth at 3X10'-8 M after 48 hrs by sulforhodamine B assay; conditions: MDA-MB-231, 48 h, read-out: Activity
[11] = tested on: HL-60(TB); experiment: Growth inhibition of human HL-60(TB) cells assessed as cell growth at 3X10'-7 M after 48 hrs by sulforhodamine B assay; conditions: HL-60, 48 h, read-out: Activity
[12] = tested on: K562; experiment: Growth inhibition of human K562 cells assessed as cell growth at 3X10'-7 M after 48 hrs by sulforhodamine B assay; conditions: K562, 48 h, read-out: Activity
[13] = tested on: SR; experiment: Growth inhibition of human SR cells assessed as cell growth at 3X10'-7 M after 48 hrs by sulforhodamine B assay; conditions: read-out: Activity
[14] = tested on: 786-0; experiment: Growth inhibition of human 786-0 cells assessed as cell growth at 3X10'-8 M after 48 hrs by sulforhodamine B assay; conditions: 786-0, 48 h, read-out: Activity
[15] = tested on: SK-MEL-28; experiment: Growth inhibition of human SK-MEL-28 cells assessed as cell growth at 3X10'-7 M after 48 hrs by sulforhodamine B assay; conditions: SK-MEL-28, 48 h, read-out: Activity
[16] = tested on: HOP-92; experiment: Growth inhibition of human HOP92 cells assessed as cell growth at 3X10'-7 M after 48 hrs by sulforhodamine B assay; conditions: HOP-92, 48 h, read-out: Activity
[17] = tested on: NCI-H226; experiment: Growth inhibition of human NCI-H226 cells assessed as cell growth at 3X10'-5 M after 48 hrs by sulforhodamine B assay; conditions: NCI-H226, 48 h, read-out: Activity
[18] = Growth inhibition of human Hs 578T cells assessed as cell growth at 3X10'-9 M after 48 hrs by sulforhodamine B assay; conditions: read-out: Activity
[19] = tested on: UACC-257; experiment: Growth inhibition of human UACC257 cells assessed as cell growth at 3X10'-9 M after 48 hrs by sulforhodamine B assay; conditions: UACC-257, 48 h, read-out: Activity
[20] = tested on: HOP-92; experiment: Growth inhibition of human HOP92 cells assessed as cell growth at 3X10'-6 M after 48 hrs by sulforhodamine B assay; conditions: HOP-92, 48 h, read-out: Activity
[21] = tested on: CCRF-CEM; experiment: Growth inhibition of human CCRF-CEM cells assessed as cell growth at 3X10'-6 M after 48 hrs by sulforhodamine B assay; conditions: read-out: Activity
[22] = tested on: K562; experiment: Growth inhibition of human K562 cells assessed as cell growth at 3X10'-6 M after 48 hrs by sulforhodamine B assay; conditions: K562, 48 h, read-out: Activity
[23] = tested on: RPMI-8226; experiment: Growth inhibition of human RPMI8226 cells assessed as cell growth at 3X10'-6 M after 48 hrs by sulforhodamine B assay; conditions: RPMI-8226, 48 h, read-out: Activity
[24] = tested on: K562; experiment: Growth inhibition of human K562 cells assessed as cell growth at 3X10'-9 M after 48 hrs by sulforhodamine B assay; conditions: K562, 48 h, read-out: Activity
[25] = tested on: SK-MEL-5; experiment: Growth inhibition of human SK-MEL-5 cells assessed as cell growth at 3X10'-8 M after 48 hrs by sulforhodamine B assay; conditions: SK-MEL-5, 48 h, read-out: Activity
[26] = tested on: RXF 393; experiment: Growth inhibition of human RXF393 cells assessed as cell growth at 3X10'-5 M after 48 hrs by sulforhodamine B assay; conditions: RXF 393, 48 h, read-out: Activity
[27] = tested on: PC-3; experiment: Growth inhibition of human PC3 cells assessed as cell growth at 3X10'-7 M after 48 hrs by sulforhodamine B assay; conditions: PC-3, 48 h, read-out: Activity
[28] = tested on: SK-OV-3; experiment: Growth inhibition of human SKOV3 cells assessed as cell growth at 3X10'-8 M after 48 hrs by sulforhodamine B assay; conditions: SK-OV-3, 48 h, read-out: Activity
[29] = tested on: SR; experiment: Growth inhibition of human SR cells assessed as cell growth at 3X10'-6 M after 48 hrs by sulforhodamine B assay; conditions: read-out: Activity
[30] = tested on: IGROV-1; experiment: Growth inhibition of human IGROV1 cells assessed as cell growth at 3X10'-7 M after 48 hrs by sulforhodamine B assay; conditions: IGROV-1, 48 h, read-out: Activity
[31] = tested on: UACC-62; experiment: Growth inhibition of human UACC62 cells assessed as cell growth at 3X10'-7 M after 48 hrs by sulforhodamine B assay; conditions: UACC-62, 48 h, read-out: Activity
[32] = tested on: OVCAR-4; experiment: Growth inhibition of human OVCAR4 cells assessed as cell growth at 3X10'-9 M after 48 hrs by sulforhodamine B assay; conditions: OVCAR-4, 48 h, read-out: Activity
[33] = tested on: MDA-MB-468; experiment: Growth inhibition of human MDA-MB-468 cells assessed as cell growth at 3X10'-8 M after 48 hrs by sulforhodamine B assay; conditions: MDA-MB-468, 48 h, read-out: Activity
[34] = tested on: SK-MEL-5; experiment: Growth inhibition of human SK-MEL-5 cells assessed as cell growth at 3X10'-9 M after 48 hrs by sulforhodamine B assay; conditions: SK-MEL-5, 48 h, read-out: Activity

## O=C(Nc1cccc(-n2cc(-c3ccncc3)c(-c3ccc(Cl)c(O)c3)n2)c1)Nc1ccc(Cl)c(C(F)(F)F)c1
[1]
  growth at 3 µM: -81%
[2]
  growth at 0.03 µM: 107%
[3]
  growth at 0.03 µM: 94%
[4]
  growth at 0.3 µM: 108%
[5]
  growth at 0.003 µM: 98%
[6]
  growth at 0.03 µM: 106%
[7]
  growth at 0.003 µM: 97%
[8]
  growth at 3 µM: -4%
[9]
  growth at 3 µM: 7%
[10]
  growth at 0.03 µM: 96%
[11]
  growth at 0.3 µM: 138%
[12]
  growth at 0.3 µM: 88%
[13]
  growth at 0.3 µM: 81%
[14]
  growth at 0.03 µM: 102%
[15]
  growth at 0.3 µM: 95%
[16]
  growth at 0.3 µM: 55%
[17]
  growth at 30 µM: 5%
[18]
  growth at 0.003 µM: 91%
[19]
  growth at 0.003 µM: 97%
[20]
  growth at 3 µM: -30%
[21]
  growth at 3 µM: -7%
[22]
  growth at 3 µM: 3%
[23]
  growth at 3 µM: -20%
[24]
  growth at 0.003 µM: 99%
[25]
  growth at 0.03 µM: 94%
[26]
  growth at 30 µM: -49%
[27]
  growth at 0.3 µM: 73%
[28]
  growth at 0.03 µM: 102%
[29]
  growth at 3 µM: -10%
[30]
  growth at 0.3 µM: 85%
[31]
  growth at 0.3 µM: 89%
[32]
  growth at 0.003 µM: 99%
[33]
  growth at 0.03 µM: 85%
[34]
  growth at 0.003 µM: 99%
